Assay results reported in patent US8895558B2, “Arylpiperazine-containing pyrrole 3-carboxamide derivatives for treating depressive disorders” (Green Cross Corporation, priority 2008, dated 2014).
Structures can show the parent of a compound that is named as a salt.

What was measured:
[1] = biological target: T1, human recombinant serotonin 5-HT2A receptor (Homo sapiens, UniProt P28223); experiment: Binding affinity for serotonin 5-HT2A receptor ([3H]Ketanserin); details: CHO-K1 expressed receptor, 1 nM [3H]Ketanserin
T1 construct: purchased PerkinElmer Life and Analytical Sciences, USA; host or cells: CHO-K1
T1 sequence (P28223 whole entry): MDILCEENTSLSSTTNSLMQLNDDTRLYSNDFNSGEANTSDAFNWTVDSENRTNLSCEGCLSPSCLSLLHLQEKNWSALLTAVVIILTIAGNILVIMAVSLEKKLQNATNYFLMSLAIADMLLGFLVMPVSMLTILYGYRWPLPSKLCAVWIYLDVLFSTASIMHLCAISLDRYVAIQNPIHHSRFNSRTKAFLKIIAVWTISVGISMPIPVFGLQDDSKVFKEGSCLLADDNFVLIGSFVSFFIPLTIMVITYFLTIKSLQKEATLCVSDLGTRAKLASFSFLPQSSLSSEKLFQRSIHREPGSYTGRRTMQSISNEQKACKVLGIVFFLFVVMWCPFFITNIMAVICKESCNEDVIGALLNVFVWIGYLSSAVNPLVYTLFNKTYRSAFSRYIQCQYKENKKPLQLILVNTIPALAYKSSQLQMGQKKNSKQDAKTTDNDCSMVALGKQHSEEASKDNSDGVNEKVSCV
Experimental: Receptor binding affinities of the compounds for serotonin receptors were measured by the method described in the literature [Park W K et al., Pharmacol Biochem Behav. 2005, 82(2), 361-372].
For serotonin 5-HT2A binding, an aliquot of human recombinant serotonin 5-HT2A receptor (PerkinElmer Life and Analytical Sciences, USA) expressed in CHO-K1 cells (5 ug/well) and 1 nM [^3H]Ketanserin (PerkinElmer) were used in the presence of mianserin (20 uM) as nonspecific. The reaction mixture was incubated for 60 min at 27 using 50 mM Tris-HCl (pH 7.4) buffer containing 4 mM CaCl2 and 0.1% ascorbic acid, and harvested through filtermate A glass fiber filter (Wallac, Finland) presoaked in 0.5% polyethyleneimine (PEI) by microbeta filtermate-96 harvester (PerkinElmer) to terminate the reaction, and then washed with ice cold 50 mM Tris-HCl buffer solution (pH 7.4). The filter was then covered with MeltiLex, sealed in a sample bag, dried in an oven. The radioactivity retained in the filter was finally counted using MicroBeta Plus (Wallac).
(§1) The binding affinity (IC50) of a compound for the receptor was calculated by computerized nonlinear regression analysis (GraphPad Prism Program, San Diego, USA) using 7-8 varied concentrations of the compound run in duplicate tubes.

[2] = biological target: T2, human recombinant 5-HT2C receptor (Homo sapiens, UniProt P28335); experiment: Binding affinity for serotonin 5-HT2C receptor ([3H]Mesulergine); details: CHO-K1 membranes, 1.3 nM [3H]Mesulergine
T2 construct: purchased PerkinElmer
T2 sequence (P28335 33-458): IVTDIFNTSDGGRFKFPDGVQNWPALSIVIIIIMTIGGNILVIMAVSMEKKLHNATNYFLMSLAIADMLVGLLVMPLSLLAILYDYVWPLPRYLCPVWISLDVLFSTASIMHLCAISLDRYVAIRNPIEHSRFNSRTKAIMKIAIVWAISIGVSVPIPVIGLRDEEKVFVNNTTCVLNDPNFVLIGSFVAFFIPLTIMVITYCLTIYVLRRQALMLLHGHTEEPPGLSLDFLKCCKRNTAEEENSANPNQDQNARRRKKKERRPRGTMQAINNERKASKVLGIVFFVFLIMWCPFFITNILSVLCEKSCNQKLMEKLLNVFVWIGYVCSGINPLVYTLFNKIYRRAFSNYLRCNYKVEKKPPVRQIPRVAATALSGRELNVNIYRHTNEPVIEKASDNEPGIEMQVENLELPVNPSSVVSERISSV
Experimental: Receptor binding affinities of the compounds for serotonin receptors were measured by the method described in the literature [Park W K et al., Pharmacol Biochem Behav.
as §1
Nonspecific binding was determined using 100 uM mianserin. The incubations were performed for 60 min at 27, and these were terminated by rapid filtration through filtermate. A glass fiber filter presoaked in 0.5% PEI.

[3] = biological target: T3, human serotonin transporter (Homo sapiens, UniProt P31645); experiment: Binding affinity for serotonin transporter ([3H]Imipramine); details: HEK-293 membranes, 2 nM [3H]Imipramine
T3 construct: purchased PerkinElmer; host or cells: HEK-293
T3 sequence (P31645 whole entry): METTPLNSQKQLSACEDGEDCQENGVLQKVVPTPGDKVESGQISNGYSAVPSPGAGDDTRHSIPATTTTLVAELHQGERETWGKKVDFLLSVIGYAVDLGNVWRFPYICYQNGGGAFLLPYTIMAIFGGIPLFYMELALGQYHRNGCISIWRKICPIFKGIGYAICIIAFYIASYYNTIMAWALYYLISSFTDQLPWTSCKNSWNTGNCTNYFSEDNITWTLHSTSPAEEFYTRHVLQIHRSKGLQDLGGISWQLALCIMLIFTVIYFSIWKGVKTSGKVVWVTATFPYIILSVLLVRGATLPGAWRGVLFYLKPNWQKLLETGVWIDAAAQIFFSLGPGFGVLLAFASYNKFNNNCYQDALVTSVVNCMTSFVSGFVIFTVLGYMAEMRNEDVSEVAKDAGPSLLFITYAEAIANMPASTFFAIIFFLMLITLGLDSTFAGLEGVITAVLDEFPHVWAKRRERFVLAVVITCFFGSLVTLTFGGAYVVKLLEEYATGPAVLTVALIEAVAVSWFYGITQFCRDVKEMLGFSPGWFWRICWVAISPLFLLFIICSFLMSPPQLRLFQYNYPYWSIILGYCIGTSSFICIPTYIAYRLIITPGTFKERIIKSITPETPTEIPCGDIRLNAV
Experimental: For serotonin transporter binding assays, a reaction mixture with a final volume of 0.25 ml was prepared by mixing a test compound, human serotonin transporter membrane expressed in HEK-293 cells (PerkinElmer, 5 ug/well), [^3H]Imipramine (PerkinElmer, 2 nM) and 50 mM Tris-HCl (pH 7.4) buffer containing 120 mM NaCl and 5 mM KCl. The reaction mixture was incubated for 30 min at 27, and harvested through filtermate. A glass fiber filter presoaked in 0.5% PEI with ice cold 50 mM Tris-HCl buffer (pH 7.4) containing 0.9% NaCl.

| SMILES | IC50 [1] | IC50 [2] | IC50 [3] |
| --- | --- | --- | --- |
| CCCn1c(-c2cccnc2)cc(C(=O)NCCCN2CCN(c3cccc(Cl)c3Cl)CC2)c1C [Example 101, N-(3-(4-(2,3-dichlorophenyl)piperazin-1-yl)propyl)-2-methyl-1-propyl-5-(pyridin-3-yl)-1H-pyrrole-3-carboxamide] | 46 nM | 344 nM | 133 nM |
| COc1cccc(N2CCN(CCCNC(=O)c3cc(-c4ccccc4)n(C)c3C)CC2)c1OC [Example 158, N-(3-(4-(2,3-dimethoxyphenyl)piperazin-1-yl)propyl)-1,2-dimethyl-5-phenyl-1H-pyrrole-3-carboxamide] | 666 nM | 782 nM | 1260 nM |
| Cc1c(C(=O)NCCCN2CCN(c3cccc(Cl)c3)CC2)cc(-c2ccccc2)n1C [Example 1, N-(3-(4-(3-chlorophenyl)piperazin-1-yl)propyl)-1,2-dimethyl-5-phenyl-1H-pyrrole-3-carboxamide] | 92 nM | 160 nM | 11.1 nM |
| Cc1ccc2cccc(N3CCN(CCNC(=O)c4cc(C(C)(C)C)n(C)c4C)CC3)c2n1 [Example 188, 5-tert-butyl-1,2-dimethyl-N-(2-(4-(2-methylquinolin-8-yl)piperazin-1-yl)ethyl)-1H-pyrrole-3-carboxamide] | 1480 nM | 1500 nM | – |
| Cc1[nH]c(-c2ccccc2)c(C)c1C(=O)NCCN1CCN(c2cccc(Cl)c2Cl)CC1 [Example 76, N-(2-(4-(2,3-dichlorophenyl)piperazin-1-yl)ethyl)-2,4-dimethyl-5-phenyl-1H-pyrrole-3-carboxamide hydrochloride] | 37 nM | 13 nM | 162 nM |
| CCn1c(-c2ccccc2)cc(C(=O)NCCCN2CCN(c3cccc(C)c3C)CC2)c1C [Example 5, N-(3-(4-(2,3-dimethylphenyl)piperazin-1-yl)propyl)-1-ethyl-2-methyl-5-phenyl-1H-pyrrole-3-carboxamide] | 75 nM | 139 nM | 35.9 nM |
| CCCCc1cc(C(=O)NCCCN2CCN(c3cccc(Cl)c3Cl)CC2)c(C)[nH]1 [Example 137, 5-butyl-N-(3-(4-(2,3-dichlorophenyl)piperazin-1-yl)propyl)-2-methyl-1H-pyrrole-3-carboxamide] | 68 nM | 133 nM | 62 nM |
| CCCn1c(-c2ccccc2)cc(C(=O)NCCCN2CCN(c3cccc(Cl)c3)CC2)c1C [Example 6, N-(3-(4-(3-chlorophenyl)piperazin-1-yl)propyl)-2-methyl-5-phenyl-1-propyl-1H-pyrrole-3-carboxamide] | 191 nM | 273 nM | 93 nM |
| Cc1c(C(=O)NCCCN2CCN(c3cccc(Cl)c3Cl)CC2)cc(-c2ccccc2)n1Cc1ccccc1 [Example 19, 1-Benzyl-N-(3-(4-(2,3-dichlorophenyl)piperazin-1-yl)propyl)-2-methyl-5-phenyl-1H-pyrrole-3-carboxamide] | 354 nM | 220 nM | 125 nM |
| CCCn1c(-c2ccc(Cl)cc2)cc(C(=O)NCCCN2CCN(c3cccc(Cl)c3Cl)CC2)c1C [Example 66, 5-(4-chlorophenyl)-N-(3-(4-(2,3-dichlorophenyl)piperazin-1-yl)propyl)-2-methyl-1-propyl-1H-pyrrole-3-carboxamide hydrochloride] | 333 nM | 41 nM | 1160 nM |
| Cc1[nH]c(-c2ccccc2)c(C)c1C(=O)NCCCCN1CCN(c2cccc(Cl)c2Cl)CC1 [Example 78, N-(4-(4-(2,3-dichlorophenyl)piperazin-1-yl)butyl)-2,4-dimethyl-5-phenyl-1H-pyrrole-3-carboxamide hydrochloride] | 19 nM | 10 nM | 74 nM |
| CCCn1c(-c2ccc(Cl)cc2)cc(C(=O)NCCCN2CCN(c3cccc(C)c3C)CC2)c1C [Example 65, 5-(4-chlorophenyl)-N-(3-(4-(2,3-dimethylphenyl)piperazin-1-yl)propyl)-2-methyl-1-propyl-1H-pyrrole-3-carboxamide hydrochloride] | 192 nM | 26 nM | 131 nM |
| Cc1c(C(=O)NCCCN2CCN(c3cccc(Cl)c3Cl)CC2)cc(C(C)(C)C)n1C [Example 128, 5-tert-butyl-N-(3-(4-(2,3-dichlorophenyl)piperazin-1-yl)propyl)-1,2-dimethyl-1H-pyrrole-3-carboxamide] | 163 nM | 1020 nM | 375 nM |
| CCCCc1cc(C(=O)NCCCN2CCN(c3cccc(Cl)c3Cl)CC2)c(C)n1C [Example 138, 5-butyl-N-(3-(4-(2,3-dichlorophenyl)piperazin-1-yl)propyl)-1,2-dimethyl-1H-pyrrole-3-carboxamide] | 134 nM | 268 nM | 334 nM |
| Cc1c(C(=O)NCCCN2CCN(c3cccc(Cl)c3Cl)CC2)cc(-c2ccc(Cl)cc2)n1C [Example 62, 5-(4-chlorophenyl)-N-(3-(4-(2,3-dichlorophenyl)piperazin-1-yl)propyl)-1,2-dimethyl-1H-pyrrole-3-carboxamide hydrochloride] | 232 nM | 39 nM | 733 nM |
| Cc1c(C(=O)NCCN2CCN(c3cccc(Cl)c3F)CC2)cc(C(C)(C)C)n1C [Example 186, 5-tert-butyl-N-(2-(4-(3-chloro-2-fluorophenyl)piperazin-1-yl)ethyl)-1,2-dimethyl-1H-pyrrole-3-carboxamide] | 121 nM | 293 nM | – |
| Cc1c(C(=O)NCCN2CCN(c3cccc(Cl)c3Cl)CC2)cc(C(C)(C)C)n1C [Example 169, 5-tert-butyl-N-(2-(4-(2,3-dichlorophenyl)piperazin-1-yl)ethyl)-1,2-dimethyl-1H-pyrrole-3-carboxamide] | 57 nM | – | – |
| Cc1cccc(N2CCN(CCNC(=O)c3cc(C(C)(C)C)n(C)c3C)CC2)c1C [Example 189, 5-tert-butyl-N-(2-(4-(2,3-dimethylphenyl)piperazin-1-yl)ethyl)-1,2-dimethyl-1H-pyrrole-3-carboxamide] | – | 227 nM | – |
| CCn1c(C(C)(C)C)cc(C(=O)NCCCN2CCN(c3cccc(C)c3C)CC2)c1C [Example 190, 5-tert-butyl-N-(3-(4-(2,3-dimethylphenyl)piperazin-1-yl)propyl)-1-ethyl-2-methyl-1H-pyrrole-3-carboxamide] | 386 nM | 1140 nM | – |
| Cc1c(Cl)cccc1N1CCN(CCNC(=O)c2cc(-c3ccccc3)n(C)c2C)CC1 [Example 184, N-(2-(4-(3-chloro-2-methylphenyl)piperazin-1-yl)ethyl)-1,2-dimethyl-5-phenyl-1H-pyrrole-3-carboxamide] | 152 nM | 233 nM | – |
| Cc1c(Cl)cccc1N1CCN(CCNC(=O)c2cc(C(C)(C)C)n(C)c2C)CC1 [Example 187, 5-tert-butyl-N-(2-(4-(3-chloro-2-methylphenyl)piperazin-1-yl)ethyl)-1,2-dimethyl-1H-pyrrole-3-carboxamide] | 54 nM | 210 nM | – |
| Cc1ccc2cccc(N3CCN(CCNC(=O)c4cc(-c5ccccc5)n(C)c4C)CC3)c2n1 [Example 185, 1,2-dimethyl-N-(2-(4-(2-methylquinolin-8-yl)piperazin-1-yl)ethyl)-5-phenyl-1H-pyrrole-3-carboxamide] | 761 nM | 554 nM | – |
